{"source": "patent US20250032449A1", "about": "“TREATMENT OF RHEUMATOID ARTHRITIS” (SYNACT PHARMA APS, priority 2021, published 2025)", "key": {"[1]": {"test_system": "aminotransferases (ALT or ALAT, AST)", "details": "known effect of MTX; cited from earlier work"}, "[2]": {"test_system": "alanine aminotransferase/alanine transaminase (ALAT)", "from_the_text": "The study population will consist of newly diagnosed subjects with severe active RA (CDAI (Clinical disease activity score)>22) who are to start up-titration with methotrexate (MTX).\nSodium, potassium, chloride, calcium, glucose, creatinine, urea, albumin, unconjugated and total bilirubin, aspartate transaminase (AST), alanine transaminase (ALT), alkaline phosphatase (ALP), gamma-glutamyl transferase (GGT) and INR. The biochemistry blood samples will be taken at all visits. A serum β-HCG pregnancy test will be taken at screening.\nSafety measures (AEs, SAEs, including laboratory abnormalities) will be registered during the whole study duration.\nALAT is commonly elevated following MTX treatment."}, "[3]": {"details": "steady conditions, repeated dose Phase I"}, "MC1R": {"test_system": "MC1R", "details": "cited from earlier work"}, "MC3R": {"test_system": "MC3R", "details": "cited from earlier work"}, "[4]": {"test_system": "mouse primary macrophages", "details": "cited from earlier work"}, "macrophages": {"test_system": "macrophages", "details": "cited from earlier work"}, "melanocytes": {"test_system": "melanocytes", "details": "cited from earlier work"}, "peritonitis": {"test_system": "peritonitis", "details": "oral, cited from earlier work"}, "[5]": {"test_system": "experimental inflammatory arthritis", "details": "oral; cited from earlier work"}, "mouse model of arthritis": {"test_system": "mouse model of arthritis", "details": "WO 2020/229297; cited from earlier work"}, "[6]": {"test_system": "newly diagnosed subjects with severe active RA (CDAI>22)", "assay": "Phase IIa placebo-controlled study in early RA patients starting MTX: CDAI", "details": "for CDAI Baseline, group mean / CDAI Screening, group mean / CDAI Week 4, group mean / CDAI Week 2, group mean / CDAI Week 5, group mean / CDAI Difference / CDAI Difference in %: n = 31; for CDAI Baseline, group mean / CDAI Screening, group mean: before treatment; for CDAI Week 4, group mean: end of treatment; for CDAI Week 2, group mean: mid-treatment; for CDAI Week 5, group mean: one week follow-up after last dosage; for CDAI Difference / CDAI Difference in %: week 4 versus baseline"}, "[7]": {"details": "50 mg AP1189 once daily plus MTX weekly, 2 weeks, n 32"}, "[8]": {"details": "50 mg AP1189 once daily plus MTX weekly, 4 weeks (end of treatment), n 33"}, "[9]": {"details": "50 mg AP1189 once daily plus MTX weekly, 5 weeks (one week after final dosage), n 32"}, "[10]": {"details": "100 mg AP1189 once daily plus MTX weekly, 2 weeks, n 34"}, "[11]": {"details": "100 mg AP1189 once daily plus MTX weekly, 4 weeks (end of treatment), n 33"}, "[12]": {"details": "100 mg AP1189 once daily plus MTX weekly, 5 weeks (one week after final dosage), n 35"}, "[13]": {"details": "100 mg dosage AP1189 (acetate salt), with MTX"}, "[14]": {"details": "50 mg AP1189 (acetate salt) group"}, "[15]": {"details": "50 mg AP1189 (acetate salt) once daily plus MTX (10-25 mg) weekly"}, "[16]": {"details": "50 mg AP1189 (acetate salt) once daily plus MTX weekly"}, "[17]": {"details": "100 mg AP1189 (acetate salt) group"}, "[18]": {"details": "100 mg AP1189 (acetate salt) once daily plus MTX (10-25 mg) weekly"}, "[19]": {"details": "100 mg AP1189 (acetate salt) once daily plus MTX weekly"}}, "note": "Like-named read-outs stand apart in the source and are kept apart here."}
{"compound": "CN(Cc1cnc2nc(N)nc(N)c2n1)c1ccc(C(=O)N[C@@H](CCC(=O)O)C(=O)O)cc1", "note": "[MTX, methotrexate]", "values": [{"measurement": "Effect on aminotransferases (transaminases)", "setting": "[1]", "result": "cause an increase in aminotransferases"}]}
{"compound": "(E)-N-trans-{3-[1-(2-nitrophenyl)-1H-pyrrol-2-yl]-allylidene}-aminoguanidinium acetate [AP1189]", "values": [{"measurement": "ALAT 2 weeks (share of subjects with clinical significant abnormal value)", "setting": "[2]; [7]", "result": 6.3, "unit": "%"}, {"measurement": "ALAT CSA (Clinical significant abnormal value), number", "setting": "[2]; [7]", "result": 2}, {"measurement": "ALAT 4 weeks (share of subjects with clinical significant abnormal value)", "setting": "[2]; [8]", "result": 6.1, "unit": "%"}, {"measurement": "ALAT CSA (Clinical significant abnormal value), number", "setting": "[2]; [8]", "result": 2}, {"measurement": "ALAT 5 weeks (share of subjects with clinical significant abnormal value)", "setting": "[2]; [9]", "result": 6.3, "unit": "%"}, {"measurement": "ALAT CSA (Clinical significant abnormal value), number", "setting": "[2]; [9]", "result": 2}, {"measurement": "Effect on MTX-associated elevation of transaminases", "setting": "[2]; 50 mg dosage AP1189 (acetate salt), with MTX", "result": "did not reduce MTX-associated elevation of transaminases"}, {"measurement": "ALAT 2 weeks (share of subjects with clinical significant abnormal value)", "setting": "[2]; [10]", "result": 0.0, "unit": "%"}, {"measurement": "ALAT CSA (Clinical significant abnormal value), number", "setting": "[2]; [10]", "result": 0}, {"measurement": "ALAT 4 weeks (share of subjects with clinical significant abnormal value)", "setting": "[2]; [11]", "result": 0.0, "unit": "%"}, {"measurement": "ALAT CSA (Clinical significant abnormal value), number", "setting": "[2]; [11]", "result": 0}, {"measurement": "ALAT 5 weeks (share of subjects with clinical significant abnormal value)", "setting": "[2]; [12]", "result": 0.0, "unit": "%"}, {"measurement": "ALAT CSA (Clinical significant abnormal value), number", "setting": "[2]; [12]", "result": 0}, {"measurement": "Effect on MTX-associated elevation of transaminases", "setting": "[2]; [13]", "result": "completely abolish the MTX-associated elevation of transaminases"}, {"measurement": "ALAT change", "setting": "[2]; dosage of 50 mg, with MTX, at 2 weeks, 4 weeks (EoT) and 5 weeks (FoV)", "result": "an increase in ALAT is observed"}, {"measurement": "ALAT elevation", "setting": "[2]; dosage of 100 mg AP1189, with MTX", "result": 0.0, "unit": "%"}, {"measurement": "C Max (mean +/− SD, N = 9)", "setting": "[3]; 50 mg once daily", "result": "180 ± 38", "unit": "ng/mL"}, {"measurement": "C Trough (Mean +/− SD, N = 9)", "setting": "[3]; 50 mg once daily", "result": "46 ± 14", "unit": "ng/mL"}, {"measurement": "C Max (mean +/− SD, N = 9)", "setting": "[3]; 100 mg once daily", "result": "427 ± 76", "unit": "ng/mL"}, {"measurement": "C Trough (Mean +/− SD, N = 9)", "setting": "[3]; 100 mg once daily", "result": "100 ± 25", "unit": "ng/mL"}, {"measurement": "C Max (mean +/− SD, N = 9)", "setting": "[3]; 200 mg once daily", "result": "893 ± 198", "unit": "ng/mL"}, {"measurement": "C Trough (Mean +/− SD, N = 9)", "setting": "[3]; 200 mg once daily", "result": "186 ± 45", "unit": "ng/mL"}, {"measurement": "ERK1/2 phosphorylation", "setting": "MC1R", "result": "cause ERK1/2 phosphorylation"}, {"measurement": "canonical cAMP generation", "setting": "MC1R", "result": "does not induce canonical cAMP generation"}, {"measurement": "ERK1/2 phosphorylation", "setting": "MC3R", "result": "cause ERK1/2 phosphorylation"}, {"measurement": "canonical cAMP generation", "setting": "MC3R", "result": "does not induce canonical cAMP generation"}, {"measurement": "Efferocytosis", "setting": "[4]", "result": "proefferocytic effect"}, {"measurement": "Cytokine release", "setting": "macrophages", "result": "reduce cytokine release"}, {"measurement": "Melanogenesis", "setting": "melanocytes", "result": "no melanogenesis was induced"}, {"measurement": "Anti-inflammatory action in peritonitis", "setting": "peritonitis", "result": "elicits anti-inflammatory actions"}, {"measurement": "Resolution phase", "setting": "peritonitis; peritonitis", "result": "accelerated the resolution phase"}, {"measurement": "Macroscopic and histological parameters of joint disruption", "setting": "[5]", "result": "significant reduction"}, {"measurement": "Combined effect of AP1189 and methotrexate (MTX)", "setting": "mouse model of arthritis", "result": "synergistic effect"}, {"measurement": "CDAI Baseline, group mean", "setting": "[6]; [14]", "result": 36.1}, {"measurement": "CDAI Screening, group mean", "setting": "[6]; [14]", "result": 35.6}, {"measurement": "CDAI Week 4, group mean", "setting": "[6]; [15]", "result": 24.2}, {"measurement": "CDAI Week 2, group mean", "setting": "[6]; [15]", "result": 29.9}, {"measurement": "CDAI Week 5, group mean", "setting": "[6]; [15]", "result": 22.9}, {"measurement": "CDAI Difference", "setting": "[6]; [16]", "result": "−11.9"}, {"measurement": "CDAI Difference in %", "setting": "[6]; [16]", "result": 33, "unit": "%"}, {"measurement": "CDAI Baseline, group mean", "setting": "[6]; [17]", "result": 39}, {"measurement": "CDAI Screening, group mean", "setting": "[6]; [17]", "result": 38.9}, {"measurement": "CDAI Week 4, group mean", "setting": "[6]; [18]", "result": 23.9}, {"measurement": "CDAI Week 2, group mean", "setting": "[6]; [18]", "result": 28.9}, {"measurement": "CDAI Week 5, group mean", "setting": "[6]; [18]", "result": 21.3}, {"measurement": "CDAI Difference", "setting": "[6]; [19]", "result": "−15.1"}, {"measurement": "CDAI Difference in %", "setting": "[6]; [19]", "result": 39, "unit": "%"}, {"measurement": "Efficacy in treating rheumatoid arthritis (CDAI)", "setting": "[6]; [13]", "result": "a reduction in CDAI"}, {"measurement": "Effect in reducing CDAI", "setting": "[6]; both tested dosages, 50 mg and 100 mg, with MTX", "result": "significant effect of AP1189 in reducing CDAI"}]}
